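Dose response: 5 concentrations. Exposure: 48 h. Format: 96-well plates. Endpoint: linear interpolation; highest concentration if not reached. GI50 is the concentration that inhibits growth by half.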 Calls of active or inactive are those of the source. Cut-off read from the data, not from the text of the source: active = GI50 up to about 1.1 µM and inactive = higher.
Tests used:
Assay in all cases: DTP human tumour cell line panel, 48 h
RXF 393 = test system: RXF 393
UACC-62 = test system: UACC-62
HCT-15 = test system: HCT-15
UACC-257 = test system: UACC-257
SNB-19 = test system: SNB-19
OVCAR-4 = test system: OVCAR-4
SR = test system: SR
MOLT-4 = test system: MOLT-4
SNB-75 = test system: SNB-75
SF-295 = test system: SF-295
K562 = test system: K562
COLO 205 = test system: COLO 205
SK-OV-3 = test system: SK-OV-3
TK-10 = test system: TK-10
HCT-116 = test system: HCT-116
SF-268 = test system: SF-268
HL-60 = test system: HL-60
NCI-H460 = test system: NCI-H460
SK-MEL-2 = test system: SK-MEL-2
NCI-H522 = test system: NCI-H522

O=C(CCC(=O)CC(O)(C(F)(F)F)C(F)(F)F)CC(O)(C(F)(F)F)C(F)(F)F
GI50 (RXF 393): > 100 µM (inactive) | GI50 (UACC-62): 31.7 µM (inactive) | GI50 (HCT-15): 35 µM | GI50 (UACC-257): 34.4 µM (inactive) | GI50 (SNB-19): 24 µM (inactive) | GI50 (OVCAR-4): 33 µM (inactive) | GI50 (SR): 47.9 µM (inactive) | GI50 (MOLT-4): 41.3 µM (inactive) | GI50 (SNB-75): 82.8 µM (inactive) | GI50 (SF-295): 32.1 µM (inactive) | GI50 (K562): 33.4 µM (inactive) | GI50 (COLO 205): 29.2 µM (inactive) | GI50 (SK-OV-3): > 100 µM (inactive) | GI50 (TK-10): 56.9 µM (inactive) | GI50 (HCT-116): 46.9 µM (inactive) | GI50 (SF-268): 71.6 µM (inactive) | GI50 (HL-60): 33.7 µM (inactive) | GI50 (NCI-H460): > 10 µM (inactive)

CC(=O)NNc1nc(C)c(C(=O)NNC(=O)C(=O)Nc2c(C)cccc2C)s1
GI50 (RXF 393): 32.2 µM (inactive) | GI50 (UACC-62): 33.3 µM (inactive) | GI50 (SK-MEL-2): 48.9 µM (inactive) | GI50 (HCT-15): 32.3 µM | GI50 (UACC-257): 36.1 µM (inactive) | GI50 (SNB-19): 61 µM (inactive) | GI50 (OVCAR-4): 41.1 µM (inactive) | GI50 (MOLT-4): 22.6 µM (inactive) | GI50 (SNB-75): 96.4 µM (inactive) | GI50 (SF-295): 40.6 µM (inactive) | GI50 (K562): 34 µM (inactive) | GI50 (COLO 205): 31.8 µM (inactive) | GI50 (SK-OV-3): > 100 µM (inactive) | GI50 (TK-10): 77.1 µM (inactive) | GI50 (HCT-116): 40.9 µM (inactive) | GI50 (SF-268): 33.2 µM (inactive) | GI50 (HL-60): 25.9 µM (inactive) | GI50 (NCI-H522): 16.1 µM (inactive) | GI50 (NCI-H460): 33 µM (inactive)

N#CSCc1nc2ccc(Cl)cc2c(-c2ccccc2)[n+]1[O-]
GI50 (RXF 393): 12.7 µM (inactive) | GI50 (UACC-62): 19.2 µM (inactive) | GI50 (SK-MEL-2): 20.1 µM (inactive) | GI50 (HCT-15): 17.3 µM | GI50 (UACC-257): 42.3 µM (inactive) | GI50 (SNB-19): 41.6 µM (inactive) | GI50 (OVCAR-4): 25.5 µM (inactive) | GI50 (SR): 24.9 µM (inactive) | GI50 (MOLT-4): 14.6 µM (inactive) | GI50 (SNB-75): 32.7 µM (inactive) | GI50 (SF-295): 35.2 µM (inactive) | GI50 (K562): 25.7 µM (inactive) | GI50 (COLO 205): 60.1 µM (inactive) | GI50 (TK-10): > 100 µM (inactive) | GI50 (HCT-116): 19.7 µM (inactive) | GI50 (SF-268): 25.7 µM (inactive) | GI50 (HL-60): 21.5 µM (inactive) | GI50 (NCI-H460): 40.3 µM (inactive)

C1=C[C@]2(CCC13OCCO3)COc1ccccc12
GI50 (UACC-62): 23.9 µM (inactive) | GI50 (SK-MEL-2): 34.7 µM (inactive) | GI50 (HCT-15): 28 µM | GI50 (UACC-257): 43.1 µM (inactive) | GI50 (SNB-19): 38 µM (inactive) | GI50 (OVCAR-4): 47 µM (inactive) | GI50 (SR): 29.9 µM (inactive) | GI50 (MOLT-4): 20.2 µM (inactive) | GI50 (SNB-75): 42.3 µM (inactive) | GI50 (SF-295): 43.1 µM (inactive) | GI50 (K562): 11.9 µM (inactive) | GI50 (COLO 205): 88.7 µM (inactive) | GI50 (SK-OV-3): 53.2 µM (inactive) | GI50 (TK-10): 49.1 µM (inactive) | GI50 (HCT-116): 37.1 µM (inactive) | GI50 (HL-60): 6.81 µM (inactive) | GI50 (NCI-H460): 31.7 µM (inactive)

CCOC(=O)c1[nH]c2c(OC)n[n+]([O-])cc2c1[N+](=O)[O-]
GI50 (RXF 393): 15.8 µM (inactive) | GI50 (UACC-62): 19.5 µM (inactive) | GI50 (SK-MEL-2): 19.8 µM (inactive) | GI50 (HCT-15): 18.4 µM | GI50 (UACC-257): 19 µM (inactive) | GI50 (SNB-19): 25.6 µM (inactive) | GI50 (OVCAR-4): 19.8 µM (inactive) | GI50 (MOLT-4): 31.9 µM (inactive) | GI50 (SNB-75): 9.23 µM (inactive) | GI50 (SF-295): 37.2 µM (inactive) | GI50 (K562): 14.4 µM (inactive) | GI50 (COLO 205): 25.1 µM (inactive) | GI50 (SK-OV-3): > 100 µM (inactive) | GI50 (TK-10): 16.4 µM (inactive) | GI50 (HCT-116): 19 µM (inactive) | GI50 (SF-268): 32 µM (inactive) | GI50 (HL-60): 19.7 µM (inactive) | GI50 (NCI-H522): 19.3 µM (inactive) | GI50 (NCI-H460): 21.1 µM (inactive)

COc1cccc(/N=N/C(=N\NC(=O)c2ccc(C)cc2)c2ccc(N(CCC#N)CCC#N)cc2C)c1
GI50 (RXF 393): 74.5 µM (inactive) | GI50 (SK-MEL-2): > 100 µM (inactive) | GI50 (HCT-15): > 100 µM | GI50 (UACC-257): 42.8 µM (inactive) | GI50 (SNB-19): > 100 µM (inactive) | GI50 (OVCAR-4): 25.1 µM (inactive) | GI50 (SR): 61.1 µM (inactive) | GI50 (MOLT-4): > 100 µM (inactive) | GI50 (SNB-75): 53.1 µM (inactive) | GI50 (SF-295): 85.7 µM (inactive) | GI50 (K562): > 100 µM (inactive) | GI50 (COLO 205): > 100 µM (inactive) | GI50 (SK-OV-3): 48.2 µM (inactive) | GI50 (TK-10): > 100 µM (inactive) | GI50 (HCT-116): 68.1 µM (inactive) | GI50 (SF-268): > 100 µM (inactive) | GI50 (NCI-H460): > 100 µM (inactive)

Clc1ccc(C2=Nc3ccccc3SC(c3ccc(Cl)c(Cl)c3)C2)c(Cl)c1 (centres undefined)
GI50 (RXF 393): 15.6 µM (inactive) | GI50 (UACC-62): 15.2 µM (inactive) | GI50 (SK-MEL-2): 17.4 µM (inactive) | GI50 (HCT-15): 9.71 µM | GI50 (UACC-257): 19.5 µM (inactive) | GI50 (SNB-19): 20.7 µM (inactive) | GI50 (OVCAR-4): 17.1 µM (inactive) | GI50 (MOLT-4): 4.9 µM (inactive) | GI50 (SNB-75): 15.4 µM (inactive) | GI50 (SF-295): 12.4 µM (inactive) | GI50 (K562): 6 µM (inactive) | GI50 (COLO 205): 18.5 µM (inactive) | GI50 (SK-OV-3): 28.1 µM (inactive) | GI50 (TK-10): 20.6 µM (inactive) | GI50 (HCT-116): 11.4 µM (inactive) | GI50 (SF-268): 13.2 µM (inactive) | GI50 (HL-60): 8.45 µM (inactive) | GI50 (NCI-H522): 13.5 µM (inactive) | GI50 (NCI-H460): 17.3 µM (inactive)

Clc1ccc(SCCCCCCCCCCSc2ccc(Cl)cc2)cc1
GI50 (RXF 393): > 100 µM (inactive) | GI50 (UACC-62): > 100 µM (inactive) | GI50 (SK-MEL-2): > 56.1 µM (inactive) | GI50 (HCT-15): > 54.2 µM | GI50 (UACC-257): > 57 µM (inactive) | GI50 (SNB-19): > 100 µM (inactive) | GI50 (OVCAR-4): > 100 µM (inactive) | GI50 (MOLT-4): > 100 µM (inactive) | GI50 (SNB-75): > 100 µM (inactive) | GI50 (SF-295): > 57.9 µM (inactive) | GI50 (K562): > 91.2 µM (inactive) | GI50 (COLO 205): > 100 µM (inactive) | GI50 (SK-OV-3): > 100 µM (inactive) | GI50 (TK-10): > 61.9 µM (inactive) | GI50 (HCT-116): > 100 µM (inactive) | GI50 (SF-268): > 100 µM (inactive) | GI50 (HL-60): > 100 µM (inactive) | GI50 (NCI-H522): > 100 µM (inactive) | GI50 (NCI-H460): > 59.7 µM (inactive)

c1ccc2c(c1)OC(N1CCCC1)c1cnc(N3CCCC3)nc1-2 (centres undefined)
GI50 (RXF 393): 20.3 µM (inactive) | GI50 (UACC-62): 50.7 µM (inactive) | GI50 (HCT-15): 29.7 µM | GI50 (UACC-257): 20.6 µM (inactive) | GI50 (SNB-19): 92.5 µM (inactive) | GI50 (OVCAR-4): 36.2 µM (inactive) | GI50 (SR): 29.7 µM (inactive) | GI50 (MOLT-4): 24 µM (inactive) | GI50 (SNB-75): 15.2 µM (inactive) | GI50 (SF-295): 30.4 µM (inactive) | GI50 (K562): 34.3 µM (inactive) | GI50 (COLO 205): 31.3 µM (inactive) | GI50 (SK-OV-3): 44.1 µM (inactive) | GI50 (TK-10): 49.2 µM (inactive) | GI50 (HCT-116): 39.2 µM (inactive) | GI50 (SF-268): 29.4 µM (inactive) | GI50 (HL-60): 27.4 µM (inactive) | GI50 (NCI-H460): 36.7 µM (inactive)

C/C(=N\NC(=O)c1ccncc1)c1ccccc1F
GI50 (RXF 393): > 10 µM (inactive) | GI50 (SK-MEL-2): > 10 µM (inactive) | GI50 (HCT-15): > 10 µM | GI50 (SNB-19): > 10 µM (inactive) | GI50 (SR): > 10 µM (inactive) | GI50 (MOLT-4): > 10 µM (inactive) | GI50 (SNB-75): > 10 µM (inactive) | GI50 (SF-295): > 10 µM (inactive) | GI50 (K562): > 10 µM (inactive) | GI50 (COLO 205): > 10 µM (inactive) | GI50 (SK-OV-3): > 10 µM (inactive) | GI50 (TK-10): > 10 µM (inactive) | GI50 (HCT-116): > 10 µM (inactive) | GI50 (SF-268): > 10 µM (inactive) | GI50 (HL-60): > 10 µM (inactive) | GI50 (NCI-H460): > 10 µM (inactive)

CC1=C2C(=O)[C@H]3[C@@H](CC=C4C[C@@H](O)CC[C@@]43C)[C@@H]2CC[C@]12O[C@@H]1C[C@H](C)CN[C@H]1[C@H]2C [JERVINE]
GI50 (RXF 393): > 38.5 µM (inactive) | GI50 (UACC-62): > 53.7 µM (inactive) | GI50 (SK-MEL-2): > 50.7 µM (inactive) | GI50 (HCT-15): > 50.8 µM | GI50 (UACC-257): > 49.3 µM (inactive) | GI50 (SNB-19): > 41.7 µM (inactive) | GI50 (OVCAR-4): > 44.5 µM (inactive) | GI50 (MOLT-4): > 82.4 µM (inactive) | GI50 (SNB-75): > 36.4 µM (inactive) | GI50 (SF-295): > 44.1 µM (inactive) | GI50 (K562): > 61.9 µM (inactive) | GI50 (COLO 205): > 75.5 µM (inactive) | GI50 (SK-OV-3): > 40.6 µM (inactive) | GI50 (TK-10): > 37.2 µM (inactive) | GI50 (HCT-116): > 46 µM (inactive) | GI50 (SF-268): > 46.6 µM (inactive) | GI50 (HL-60): > 44.2 µM (inactive) | GI50 (NCI-H522): > 42.2 µM (inactive) | GI50 (NCI-H460): > 44.8 µM (inactive)
